These results are taken from US20160074480A1, “INNOVATIVE METHODS OF TREATMENTING TUBERCULOSIS” (priority 2015, published 2016).

For data set [1] the following is noted: low sustained systemic release; cited from earlier work.
In data set [2] the test system is Mycobacterium tuberculosis outside cells. To be noted: cited from earlier work.
Data set [3] concerns Mycobacterium tuberculosis bacteria in the monocytes. As to conditions: cited from earlier work.
Data set [4] has as its system M. tuberculosis. To be noted: added to or substituted in isoniazid, rifampicin and pyrazinamide triple therapy; cited from earlier work.
For data set [5] the following is noted: in vivo; cited from earlier work.
Data set [6] relates to pulmonary tuberculosis. As to conditions: given alone; cited from earlier work.
The conditions of data set [7]: 2 mg/kg; amikacin 450 mg/kg; cited from earlier work.
In data set [8] the test system is Methicillin resistant staphylococcus aureus. Description: Treatment of MRSA infected patients. To be noted: with broad spectrum antibiotics, insulin induced hypoglycemia and hyperbaric therapy.
Data set [9] deals with tuberculosis bacteria. As to conditions: treated for 3 days, versus untreated sample; cited from earlier work.
Data set [10] relates to plasma C reactive protein (CRP). To be noted: smokers; cited from earlier work.
Data set [11] deals with M. tuberculosis. As to conditions: after 9 days; cited from earlier work.
Data set [12] concerns creatine kinase. To be noted: compared with the placebo group; cited from earlier work.
The subject of data set [13] is tuberculosis cultures. To be noted: compared to the untreated cultures after three days; cited from earlier work.
In data set [14] the test system is mycobacterium tuberculosis. Description: Breast cancer patient with pulmonary TB given high dose Vitamin C. It is filed as in vivo, human. The text has this: In the presence of above reductants, ferrous ions are produced by reduction of ferric ions (#2). One reductant known to drive the Fenton reaction is Vitamin C, also known as ascorbic acid. As a pro-oxidant, vitamin C can drive the Fenton reaction by reducing ferric ions to ferrous ions as shown in the above formula and FIG. 3. Most iron within the cell is bound within porphyrins and proteins, as ferric ions that are sparingly soluble and ferrous ions are very reactive as well as more soluble. To examine the role of iron concentration in vitamin C bactericidal activity, the concentrations of bound iron and reduced and oxidized free iron were measured in tuberculosis cultures treated with vitamin C. […] This increase in free iron levels was also the dose which peaked at day three. […] We treated a person has traveled to Southeast Asia and was diagnosed with left breast cancer. It was an early case with discrete lymph node metastasis. They have cough with blood tinged sputum, night sweats, and weight loss. […] By the time we made the TB diagnosis they were treated with high dose Vitamin C 10 to 25 grams in 500 ml normal saline every day for a total of 10 doses as an adjuvant therapy for cancer. They underwent local injection of anti-breast cancer chemotherapy therapeutic agents with insulin and local heat application with magnetic heat waves and hyperbaric therapy using soft air HBO chamber.
This person has traveled to Southeast Asia and was diagnosed with left breast cancer. It was an early case with discrete lymph node metastasis. They have cough with blood tinged sputum, night sweats, and weight loss. […] By the time we made the TB diagnosis they were treated with high dose Vitamin C 10 to 25 grams in 500 ml normal saline every day for a total of 10 doses as an adjuvant therapy for cancer. They underwent local injection of anti-breast cancer chemotherapy therapeutic agents with insulin and local heat application with magnetic heat waves and hyperbaric therapy using soft air HBO chamber.
After the lab came with mycobacterium tuberculosis, we wanted to see why the cough has gone with no sputum. […] We sent the sputum again, and came negative for mycobacterium tuberculosis after culture. This also made us to diagnose that the lesion in the lungs was not a metastatic breast cancer. The patient was treated with chemotherapy, local injection of breast mass and lymph nodes with high dose Vitamin C chemotherapy therapeutic agents. After completion of therapy, they were sent to surgery for the removal of the remaining lesion mass in the breast which had shrunk considerably, and axillary lymph node resection. They were seen 3 months after surgery. Their chest X ray was negative and so also sputum M. tuberculosis bacteria. They were free of cancer and tuberculosis.

Data set [15] concerns endothelial dysfunction. To be noted: 2,000 mg/day for two weeks; cited from earlier work.
The conditions of data set [16]: cited from earlier work.
Data set [17] has as its system M. tuberculosis. To be noted: flow cytometry; cited from earlier work. A general note: Flow cytometry measures light scatter and fluorescence of single cells or particles in a stream.
The conditions of data set [18]: intravenous, doses from 5 to 50 grams or higher per day.
The subject of data set [19] is malaria. As to conditions: 3 grams (about 50 mg/kg) over a 3 to 5 day period; cited from earlier work.
The test system of data set [20] is radiation resistant breast cancer cells. As to conditions: cells pre-loaded with iron after incubation with holotransferrin, cited from earlier work.
Data set [21] deals with latent tuberculosis. As to conditions: taken daily for 9 months; cited from earlier work.
For data set [22], the system named is pathogenic organism's. To be noted: cited from earlier work.
The conditions of data set [23]: at atmospheric pressure; cited from earlier work.
The subject of data set [24] is Mycobacterium tuberculosis growth. As to conditions: cited from earlier work.
Data set [25] deals with MCF-7 Human Breast Cancer Cells. As to conditions: insulin with methotrexate; cited from earlier work.
A short description of data set [26]: Finger stick blood sugar after insulin. It counts as in vivo, human. As to conditions: 10 minutes after 5-10 units subcutaneously or IV. The procedure: Blood sugar was tested by using finger stick. We administered 5-10 units of homolog (rapid acting) insulin subcutaneously or IV slowly depending on the blood sugar levels. The glucose was checked 10 minutes later. It has dropped to ±40 mg %.

In data set [27] the target is proprotein convertase subtilisin-kexin type 9 (PCSK9) (Homo sapiens, UniProt Q8NBP7). To be noted: parenteral administration; cited from earlier work.

Read-outs that look alike come from different tables or passages of the source. Where only a bound is given, the exact number is not on record here.

For the molecule `O=[N+]([O-])c1ccc(O)c([N+](=O)[O-])c1` [DNP, 2,4, dinitrophenol], the “increase of the therapeutic window” value in [1] was “more than 500 fold”.
Consider `O=C1[C@H](CC[C@H](O)c2ccc(F)cc2)[C@@H](c2ccc(O)cc2)N1c1ccc(F)cc1` [Ezetimibe, (3R,4S)-1-(4-fluorophenyl)-3-[(3S)-3-(4-fluorophenyl)-3-hydroxypropyl]-4-(4-hydroxyphenyl) zetidin-2-one], for which the “killing of Mycobacterium tuberculosis outside cells” value in [2] is listed as “directly killing”. In addition, in [3], the “survival and proliferation of Mycobacterium tuberculosis in the monocytes” value is “significantly inhibiting the survival and proliferation”.
Take `COc1nc2ccc(Br)cc2cc1[C@@H](c1ccccc1)[C@@](O)(CCN(C)C)c1cccc2ccccc12` [R-207910, Bedaquiline]: the effectiveness of treatment entry in [4] is reported as “increased the effectiveness”.
As for `[H]/N=C(/N)N[C@H]1[C@H](O)[C@@H](O)[C@H](O[C@@H]2O[C@@H](C)[C@](O)(C=O)[C@H]2O[C@@H]2O[C@@H](CO)[C@H](O)[C@@H](O)[C@@H]2NC)[C@@H](N/C(N)=N\[H])[C@@H]1O` [Streptomycin], in data set [5], the “ADVERSE EVENT/CONTRAINDICATION” value is listed as “Deafness, Contraindicated during pregnancy”. Also, in [6], the immediate mortality result is on record as “dramatic reduction in immediate mortality”.
Take `CCOC(=O)C1=C[C@]2(CC)CCCN3CCc4c(n1c1ccccc41)[C@@H]32` [Vinpocetine]: the hearing loss entry in data set [7] is “prevented hearing loss”.
As for `O=C1O[C@H]([C@@H](O)CO)C(O)=C1O` [Vitamin C, L-ascorbic acid], the “outcome of MRSA infection” value in data set [8] was “complete elimination of the infection”. Further, the “intracellular levels of ferrous ions” value in [9] was “up to ten times higher”. Moreover, in data set [10], the “reduction in plasma C reactive protein (CRP) concentrations” value was 24%. For the same molecule, in [11], the “DNA damage relative to the untreated culture or culture treated with Vitamin E” value was “tenfold higher” and the “ROS induced DNA damage” value was 17-25%. For the same molecule, in data set [12], the “release of creatine kinase, an indicator of muscle damage” value was “inhibits the release of creatine kinase”. In addition, the “extracellular free iron concentrations” value in data set [13] is “nearly four-fold higher”. For the same molecule, the outcome of tuberculosis in [14] (10 to 25 grams IV every day, total of 10 doses) was “completely cured of tuberculosis”. For the same molecule, the cough result in [14] (by second week) is listed as “completely disappeared”. The “sputum for mycobacterium tuberculosis after culture” value in data set [14] (repeat sputum after treatment) is reported as “negative”. Moreover, in data set [14] (third week), the “chest X ray” value is on record as “disappearance of the lesion”. Further, the endothelial dysfunction entry in [15] is recorded as “reversed endothelial dysfunction”. Moreover, in data set [16] (IV infusion up to 50 grams, cancer patients), the peak plasma concentration was 13.4 mM. Moreover, in data set [16] (maximum tolerated dose of 3 g every 4 hours taken orally), the peak plasma concentrations is 0.22 mM. Moreover, the “increase in total ROS” value in data set [17] is “Up to threefold”. Further, the safety and tolerability entry in data set [18] is “safe and well-tolerated”.
Take `C[C@@H]1CC[C@H]2[C@@H](C)C(=O)O[C@@H]3O[C@@]4(C)CC[C@@H]1[C@]32OO4` [artemisinin]: the resistance and toxicity entry in data set [19] was “no resistance nor did toxicity”. The figures for the cancer cell killing in data set [20] (8 hours) and in data set [20] (within 24 hours) were 75% and roughly 100%, respectively.
With `NNC(=O)c1ccncc1` [isoniazid, Isoniazid], the “intracellular levels of ferrous ions” value in data set [9] is on record as “up to ten times higher”. For the same molecule, in data set [5], the “ADVERSE EVENT/CONTRAINDICATION” value was “Peripheral neuropathy”. The “reduction of the risk of active TB” value in data set [21] is reported as no more than 90%.
Take `O=[O+][O-]` [ozone]: the “molecules of chlorine equal to one molecule of ozone” value in data set [22] is recorded as 3000-10,000 molecules. In addition, the “speed of killing pathogenic organisms” value in data set [22] (compared with chlorine) is 3500 times faster. The “time to break down from O3 to O2+O1” value in data set [23] is no more than 20 min.
For the molecule Capreomycin, the “adverse effects stated in the text” value in data set [5] is “nephrotoxicity and 8th cranial auditory vestibular nerve toxicity”. Moreover, in [24], the concentration inhibiting growth was 2.5 µg/mL.
With “insulin: hormone produced in beta cells of pancreas, large polypeptide of A and B chains”, in [25], the “enhancement of the activity of methotrexate” value is listed as 10,000 times. Also, the “blood glucose by finger stick” value in data set [26] is reported as roughly 40 mg %.

B1: evolocumab: human monoclonal antibody that inhibits PCSK9 (antibody, chains of the INN, looked up, V domains shown)
VH: EVQLVQSGAEVKKPGASVKVSCKASGYTLTSYGISWVRQAPGQGLEWMGWVSFYNGNTNYAQKLQGRGTMTTDPSTSTAYMELRSLRSDDTAVYYCARGYGMDVWGQGTTVTVSS
VL: ESALTQPASVSGSPGQSITISCTGTSSDVGGYNSVSWYQQHPGKAPKLMIYEVSNRPSGVSNRFSGSKSGNTASLTISGLQAEDEADYYCNSYTSTSMVFGGGTKLTVL
As to B1, the “reduction in LDL cholesterol levels” value in [27] is given as 60%.
